For test [1], the system named is Plasmodium falciparum. Nature of the test: Antiplasmodial activity against Plasmodium falciparum K1. Type of test: functional, organism-based.
Test [2] deals with Plasmodium falciparum. Nature of the test: Antiplasmodial activity against Plasmodium falciparum NF54. Format: functional, organism-based.
Test [3] relates to Trypanosoma brucei rhodesiense. Nature of the test: Antitrypanosomal activity against Trypanosoma rhodesiense. Type of test: functional, organism-based.
In test [4] the test system is tyrosine kinase. Put plainly: Inhibition of tyrosine kinase at 1 ug/uL.

Converted amounts (≈) assume the structure as drawn.

Turning to `COC(=O)c1cc(O)c(O)c2c1[C@]1(C)CC[C@H]3C(C)(C)CCC[C@]3(C)[C@H]1C2` [PELOROL], the IC50 in test [1] worked out at 0.786 µg/mL (≈ 2.11 µM); in test [2], 1.91 µg/mL (≈ 5.13 µM); in test [3], 17.4 µg/mL (≈ 46.7 µM).
Turning to `C=C1CCC[C@H]2[C@](C)(CC3=C(O)C(=O)C=C(OC)C3=O)[C@@H](C)CC[C@]12C` [ILIMAQUINONE], the IC50 in test [1] is 1.74 µg/mL (≈ 4.86 µM); in test [2] it was 0.949 µg/mL (≈ 2.65 µM); in test [3], 7.7 µg/mL (≈ 21.5 µM). This molecule had an inhibition in test [4] of 87%.
Regarding `C[C@@H]1CC[C@H]2[C@@H](C)C(=O)O[C@@H]3O[C@@]4(C)CC[C@@H]1[C@]32OO4` [ARTEMISININ], the figures for the IC50 in test [1] and in test [2] were 0.0014 µg/mL (≈ 0.00496 µM) and 0.0025 µg/mL (≈ 0.00885 µM), respectively.

The IC50 is the concentration that gives 50% inhibition. A lower IC50 goes with inhibition by little substance. As usually defined, the inhibition is how much of the control response was suppressed. A lower inhibition goes with a weak effect.

These data come from ChEMBL document CHEMBL1155571, “Pelorol from the tropical marine sponge Dactylospongia elegans” (J Nat Prod, 2000).
